In patent publication US6444849B1, “Amide derivatives” (Mitsubishi Chemical Corporation, priority 1997, dated 2002):
≈ marks a conversion by molar mass, not a printed value.

Experiments:
Campylobacter jejuni = assay: Measurement of anti-Campylobacter jejuni activity (MIC); assay type: cell-based; settings: method similar to Test Example 1
Protocol: Brain heart infusion culture medium containing 10% fetal bovine serum (Difco) (5 ml) was taken in a test tube, and then the medium was inoculated with Helicobacter pylori strain 31A isolated from human (obtained from the Metropolitan Health Institute, Microorganism Department, First Laboratory of Bacteria). Cultivation was carried out under slightly aerobic condition (5% oxygen, 10% carbon dioxide, 85% nitrogen) at 37° C. for 48 hours with shaking.
The culture was then inoculated to brain heart infusion medium containing 10% fetal bovine serum at a ratio of 5%, and added with a test compound dissolved in 10% dimethyl sulfoxide. Cultivation was carried out under slightly aerobic condition at 37° C. for 48 hours with shaking, and then growth of Helicobacter pylori was examined. […] From the results shown in Tables 3 and 4, it can be understood that the compounds of the present invention have potent inhibitory activity against Helicobacter pylori.
According to a aimiar method to that of Test Example 1, inhibitory activity of the compound of the present invention against Campylobacter jejune was determined. As a result, MIC of the compound of Example 31 was 0.008 μg/ml. From the result, it can be understood that the compound of the present invention has potent inhibitory activity against Campylobacter jejumni.

in vivo = settings: both sexes, rat, oral, suspended in 0.5% CMC-Na aqueous solution, SD male and female rats, observed for seven days

| MIC (Campylobacter jejuni) [ng/mL] | Compound | LD50 (in vivo) [mg/kg] |
| --- | --- | --- |
| 8 (≈ 0.0251 µM) | CNC(=O)c1cccc(NC(=O)Cc2ccc3ccccc3c2)c1 [Example 31, N-(3-Methylcarbamoylphenyl)-2-naphthylacetnide] | – |
| – | CNC(=O)c1cccc(NC(=O)Cc2cccc3ccccc23)c1 [Example 30, N-(3-Methylcarbamoylphenyl)-1-naphthylacetamide] | ≥ 2000 |
